Experimental data taken from patent US9421209B2, “Kinase modulators” (Rhizen Pharmaceuticals SA, priority 2009, dated 2016).

Assays:
P110 δ/Pi3K δ = P110 δ/Pi3K δ (Homo sapiens, UniProt O00329); experiment: Fluorescent (HTRF) determination of PI3K enzyme activity, δ isoform; assay type: biochemical; details: for IC50: read-out: P110 δ/Pi3K δ IC 50 nM
Description: Assay 1: Fluorescent determination of PI3Kinase Kinase enzyme activity
Phosphoinositide 3 kinases (PI3K) belong to a class of lipid kinases that play a critical role in the regulation of several key cellular processes. The PI3K are capable of phosphorylating the 3-hydroxy position of phosphoinositols thereby generating second messengers involved in downstream signalling events. The homogenous time resolved fluorescence (HTRF) assay allows detection of 3,4,5-triphosphate (PIP3) formed as a result of phosphorylation of phosphotidylinositol 4,5-biphosphate (PIP2) by PI3K isoforms such as α, β, γ or δ.
PI3K isoform activity for α, β, γ or δ was determined using a PI3K human HTRF™ Assay Kit (Millipore, Billerica, Mass.) with modifications. All incubations were carried out at room temperature. […] After the initial incubation, 5 μl/well of 400 μM ATP was added and incubated for an additional 30 minutes. Reaction was terminated by adding 5 μl/well stop solution (Millipore, Billerica, Mass.). Five microliters of detection mix (Millipore, Billerica, Mass.) were then added to each well and was incubated for 6-18 h in the dark. […] Data were analyzed using Graphpad Prism (Graphpad software; San Diego Calif.) for IC50 determination. Percent inhibition was calculated based on the values for the blank and enzyme controls.

P110 δ/Pi3K δ, sequence (O00329 whole entry, canonical isoform): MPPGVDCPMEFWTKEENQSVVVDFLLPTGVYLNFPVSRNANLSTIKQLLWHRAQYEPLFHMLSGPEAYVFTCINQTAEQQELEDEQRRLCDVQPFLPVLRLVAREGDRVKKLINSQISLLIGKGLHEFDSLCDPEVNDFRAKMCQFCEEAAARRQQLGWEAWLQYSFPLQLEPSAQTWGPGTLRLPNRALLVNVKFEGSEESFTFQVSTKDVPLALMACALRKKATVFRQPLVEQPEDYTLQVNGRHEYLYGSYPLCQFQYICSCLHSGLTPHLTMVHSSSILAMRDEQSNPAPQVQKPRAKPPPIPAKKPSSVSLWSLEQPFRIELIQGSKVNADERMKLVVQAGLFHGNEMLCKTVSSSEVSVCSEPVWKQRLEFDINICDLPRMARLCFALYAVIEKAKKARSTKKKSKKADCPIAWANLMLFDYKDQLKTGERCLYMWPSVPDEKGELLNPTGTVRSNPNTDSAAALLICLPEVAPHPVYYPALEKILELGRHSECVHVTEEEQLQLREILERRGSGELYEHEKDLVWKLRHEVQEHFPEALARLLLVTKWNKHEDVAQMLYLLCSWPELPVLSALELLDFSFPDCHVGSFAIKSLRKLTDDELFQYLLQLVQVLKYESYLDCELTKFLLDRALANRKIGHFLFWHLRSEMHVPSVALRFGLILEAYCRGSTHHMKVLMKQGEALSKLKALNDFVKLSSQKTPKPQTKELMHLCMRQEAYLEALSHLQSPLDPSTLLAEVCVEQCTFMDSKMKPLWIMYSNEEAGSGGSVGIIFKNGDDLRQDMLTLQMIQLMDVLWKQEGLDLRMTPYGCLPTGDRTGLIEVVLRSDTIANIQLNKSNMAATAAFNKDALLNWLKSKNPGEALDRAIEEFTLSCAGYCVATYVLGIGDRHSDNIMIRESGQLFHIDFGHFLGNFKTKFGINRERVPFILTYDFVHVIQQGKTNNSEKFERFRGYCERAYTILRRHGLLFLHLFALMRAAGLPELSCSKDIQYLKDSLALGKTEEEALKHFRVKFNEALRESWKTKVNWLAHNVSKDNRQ
P110 δ/Pi3K δ, sequence (P27986 whole entry partner, canonical isoform): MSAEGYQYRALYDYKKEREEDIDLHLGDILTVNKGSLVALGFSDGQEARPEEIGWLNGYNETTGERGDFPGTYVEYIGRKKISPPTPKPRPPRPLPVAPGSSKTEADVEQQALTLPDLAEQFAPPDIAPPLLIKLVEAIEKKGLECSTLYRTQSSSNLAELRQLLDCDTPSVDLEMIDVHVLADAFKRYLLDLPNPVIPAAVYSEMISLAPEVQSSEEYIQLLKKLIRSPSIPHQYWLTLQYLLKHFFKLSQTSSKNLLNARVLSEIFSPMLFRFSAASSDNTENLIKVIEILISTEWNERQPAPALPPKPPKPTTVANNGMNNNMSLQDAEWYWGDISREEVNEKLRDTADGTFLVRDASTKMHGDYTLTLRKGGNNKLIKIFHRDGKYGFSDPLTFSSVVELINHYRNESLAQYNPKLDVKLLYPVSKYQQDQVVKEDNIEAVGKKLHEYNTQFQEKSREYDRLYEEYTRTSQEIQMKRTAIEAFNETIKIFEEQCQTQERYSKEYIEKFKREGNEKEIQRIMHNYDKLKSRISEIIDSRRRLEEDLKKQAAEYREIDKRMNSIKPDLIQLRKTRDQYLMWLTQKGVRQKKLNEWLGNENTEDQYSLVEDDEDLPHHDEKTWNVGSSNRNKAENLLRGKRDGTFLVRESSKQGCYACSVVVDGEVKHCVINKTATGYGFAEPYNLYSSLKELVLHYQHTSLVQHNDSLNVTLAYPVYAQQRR

Row | SMILES | melting point [°C] | inhibition at 1 µM (P110 δ/Pi3K δ) [%] | IC50 (P110 δ/Pi3K δ) [nM]
1 | CC(c1oc2ccc(Br)cc2c(=O)c1-c1ccccc1F)n1cnc2c(N)ncnc21 (stereo not drawn) [Example 28, 2-(1-(6-Amino-9H-purin-9-yl)ethyl)-6-bromo-3-(2-fluorophenyl)-4H-chromen-4-one] | 256 to 258 | < 50 | 
2 | Nc1ncnc2c1ncn2Cc1oc2ccc(Br)cc2c(=O)c1-c1ccccc1F [Example 29, 2-((6-Amino-9H-purin-9-yl)methyl)-6-bromo-3-(2-fluorophenyl)-4H-chromen-4-one] | 231 to 233 | < 50 | 
3 | CC(c1oc2ccccc2c(=O)c1-c1ccccc1)n1ncc2c(N)ncnc21 (stereo not drawn) [Example 30, 2-(1-(4-Amino-1H-pyrazolo[3,4-d]pyrimidin-1-yl)ethyl)-3-phenyl-4H-chromen-4-one] | 226 to 227 | < 50 | 
4 | CCC(c1oc2ccccc2c(=O)c1-c1ccccc1)n1cnc2c(N)ncnc21 (stereo not drawn) [Example 31, 2-(1-(6-Amino-9H-purin-9-yl)propyl)-3-phenyl-4H-chromen-4-one] | 223 to 225 | 50 to 100 | 250 to 500
5 | Nc1ncnc2c1ncn2Cc1oc2ccccc2c(=O)c1-c1ccccc1F [Example 33, 2-((6-Amino-9H-purin-9-yl)methyl)-3-(2-fluorophenyl)-4H-chromen-4-one] | 202 to 205 | < 50 | 
6 | CC(c1oc2ccccc2c(=O)c1-c1ccccc1F)n1cnc2c(N)ncnc21 (stereo not drawn) [Example 34, 2-(1-(6-Amino-9H-purin-9-yl)ethyl)-3-(2-fluorophenyl)-4H-chromen-4-one] | 247 to 250 | 50 to 100 | 
7 | CCC(c1oc2ccccc2c(=O)c1-c1ccccc1F)n1cnc2c(N)ncnc21 (stereo not drawn) [Example 35, 2-(1-(6-Amino-9H-purin-9-yl)propyl)-3-(2-fluorophenyl)-4H-chromen-4-one] | 160 to 163 | < 50 | 
8 | CCC(c1oc2ccccc2c(=O)c1-c1cccc(F)c1)n1cnc2c(N)ncnc21 (stereo not drawn) [Example 36, 2-(1-(6-amino-9H-purin-9-yl)propyl)-3-(3-fluorophenyl)-4H-chromen-4-one] | 102 to 107 | < 50 | 
9 | CCC(c1oc2ccccc2c(=O)c1-c1ccc(F)cc1)n1cnc2c(N)ncnc21 (stereo not drawn) [Example 37, 2-(1-(6-Amino-9H-purin-9-yl)propyl)-3-(4-fluorophenyl)-4H-chromen-4-one] | 223 to 227 | < 50 | 
10 | CCC(c1oc2ccc(F)cc2c(=O)c1-c1ccccc1)n1cnc2c(N)ncnc21 (stereo not drawn) [Example 38, 2-(1-(6-amino-9H-purin-9-yl)propyl)-6-fluoro-3-phenyl-4H-chromen-4-one] | 266 to 272 | < 50 | 
11 | CC(c1oc2ccccc2c(=O)c1-c1ccc(F)cc1)n1cnc2c(N)ncnc21 (stereo not drawn) [Example 39, 2-(1-(6-Amino-9H-purin-9-yl)ethyl)-3-(4-fluorophenyl)-4H-chromen-4-one] | 210 to 212 | < 50 | 
12 | CC(c1oc2ccc(F)cc2c(=O)c1-c1ccccc1)n1cnc2c(N)ncnc21 (stereo not drawn) [Example 40, 2-(1-(6-Amino-9H-purin-9-yl)ethyl)-6-fluoro-3-phenyl-4H-chromen-4-one] | 264 to 269 | 50 to 100 | 
13 | COc1cccc(-c2nn(C(C)c3oc4ccccc4c(=O)c3-c3ccccc3)c3ncnc(N)c23)c1 (stereo not drawn) [Example 41, 2-(1-(4-Amino-3-(3-methoxyphenyl)-1H-pyrazolo[3,4-d]pyrimidin-1-yl)ethyl)-3-phenyl-4H-chromen-4-one] | 176 to 178 | 50 to 100 | 
14 | O=c1c(-c2ccccc2)c(CNc2ncnc3[nH]cnc23)oc2ccccc12 [Example 43, 2-((9H-purin-6-ylamino)methyl)-3-phenyl-4H-chromen-4-one] | 155 to 158 | < 50 | 
15 | Cc1ccccc1-c1c(C(C)n2cnc3c(N)ncnc32)oc2ccccc2c1=O (stereo not drawn) [Example 44, 2-(1-(6-Amino-9H-purin-9-yl)ethyl)-3-o-tolyl-4H-chromen-4-one] | 202 to 205 | 50 to 100 | 
16 | O=c1c(-c2ccccc2F)c(CNc2ncnc3[nH]cnc23)oc2ccccc12 [Example 45, 2-((9H-purin-6-ylamino)methyl)-3-(2-fluorophenyl)-4H-chromen-4-one] | 143 to 147 | < 50 | 

Row | SMILES | melting point [°C] | inhibition at 1 µM (P110 δ/Pi3K δ) [%] | IC50 (P110 δ/Pi3K δ) [nM]
17 | O=c1c(-c2cccc(F)c2)c(CNc2ncnc3[nH]cnc23)oc2ccccc12 [Example 46, 2-((9H-purin-6-ylamino)methyl)-3-(3-fluorophenyl)-4H-chromen-4-one] | 211 to 214 | < 50 | 
18 | CC(c1oc2ccc(F)cc2c(=O)c1-c1ccccc1F)n1cnc2c(N)ncnc21 (stereo not drawn) [Example 48, 2-(1-(6-amino-9H-purin-9-yl)ethyl)-6-fluoro-3-(2-fluorophenyl)-4H-chromen-4-one] | 245 to 248 | < 50 | 
19 | CC(c1oc2ccccc2c(=O)c1-c1cc(F)cc(F)c1)n1cnc2c(N)ncnc21 (stereo not drawn) [Example 49, 2-(1-(6-Amino-9H-purin-9-yl)ethyl)-3-(3,5-difluorophenyl)-4H-chromen-4-one] | 267 to 269 | < 50 | 
20 | CC(c1oc2ccc(F)cc2c(=O)c1-c1cccc(F)c1)n1cnc2c(N)ncnc21 (stereo not drawn) [Example 50, 2-(1-(6-amino-9H-purin-9-yl)ethyl)-6-fluoro-3-(3-fluorophenyl)-4H-chromen-4-one] | 252 to 255 | 50 to 100 | 
21 | CC(c1oc2ccccc2c(=O)c1-c1cccc(F)c1)n1nc(-c2cccc(O)c2)c2c(N)ncnc21 (stereo not drawn) [Example 51a, 2-(1-(4-amino-3-(3-hydroxyphenyl)-1H-pyrazolo[3,4-d]pyrimidin-1-yl)ethyl)-3-(3-fluorophenyl)-4H-chromen-4-one] | 282 to 285 | 50 to 100 | < 250
22 | COc1cccc(-c2nn(Cc3oc4ccccc4c(=O)c3-c3ccccc3)c3ncnc(N)c23)c1 [Example 52, 2-((4-Amino-3-(3-methoxyphenyl)-1H-pyrazolo[3,4-d]pyrimidin-1-yl)methyl)-3-phenyl-4H-chromen-4-one] | 111 to 115 | < 50 | 
23 | COc1cccc(-c2nn(Cc3oc4ccccc4c(=O)c3-c3cccc(F)c3)c3ncnc(N)c23)c1 [Example 54, 2-((4-amino-3-(3-methoxyphenyl)-1H-pyrazolo[3,4-d]pyrimidin-1-yl)methyl)-3-(3-fluorophenyl)-4H-chromen-4-one] | 175 to 178 | < 50 | 
24 | C[C@@H](Nc1ncnc2[nH]cnc12)c1oc2ccccc2c(=O)c1-c1cccc(F)c1 [Example 56, (R)-2-(1-(9H-purin-6-ylamino)ethyl)-3-(3-fluorophenyl)-4H-chromen-4-one] | 274 to 276 | < 50 | 
25 | Nc1ncnc2c1c(-c1cccnc1)nn2Cc1oc2ccccc2c(=O)c1-c1ccccc1 [Example 58, 2-((4-amino-3-(pyridin-3-yl)-1H-pyrazolo[3,4-d]pyrimidin-1-yl)methyl)-3-phenyl-4H-chromen-4-one] | 253 to 255 | < 50 | 
26 | Nc1ncnc2c1c(C#CCO)nn2Cc1oc2ccccc2c(=O)c1-c1ccccc1 [Example 59, 2-((4-amino-3-(3-hydroxyprop-1-ynyl)-1H-pyrazolo[3,4-d]pyrimidin-1-yl)methyl)-3-phenyl-4H-chromen-4-one] | 171 to 173 | 50 to 100 | 250 to 500
27 | Nc1ncnc2c1c(-c1cn[nH]c1)nn2Cc1oc2ccccc2c(=O)c1-c1ccccc1 [Example 60, 2-((4-amino-3-(1H-pyrazol-4-yl)-1H-pyrazolo[3,4-d]pyrimidin-1-yl)methyl)-3-phenyl-4H-chromen-4-one] | 235 to 237 | 50 to 100 | < 250
28 | Nc1ncnc2c1c(-c1cccc(CO)c1)nn2Cc1oc2ccccc2c(=O)c1-c1ccccc1 [Example 61, 2-((4-amino-3-(3-(hydroxymethyl)phenyl)-1H-pyrazolo[3,4-d]pyrimidin-1-yl)methyl)-3-phenyl-4H-chromen-4-one] | 219 to 223 | < 50 | 
29 | Nc1ncnc2c1c(-c1cccc3[nH]ncc13)nn2Cc1oc2ccccc2c(=O)c1-c1ccccc1 [Example 62, 2-((4-amino-3-(1H-indazol-4-yl)-1H-pyrazolo[3,4-d]pyrimidin-1-yl)methyl)-3-phenyl-4H-chromen-4-one] | 248 to 252 | < 50 | 
30 | Nc1ncnc2c1c(-c1cccc(F)c1)nn2Cc1oc2ccccc2c(=O)c1-c1ccccc1 [Example 63, 2-((4-amino-3-(3-fluorophenyl)-1H-pyrazolo[3,4-d]pyrimidin-1-yl)methyl)-3-phenyl-4H-chromen-4-one] | 244 to 247 | < 50 | 
31 | Nc1ncnc2c1c(CCCO)nn2Cc1oc2ccccc2c(=O)c1-c1ccccc1 [Example 64, 2-((4-amino-3-(3-hydroxypropyl)-1H-pyrazolo[3,4-d]pyrimidin-1-yl)methyl)-3-phenyl-4H-chromen-4-one] | 182 to 184 | < 50 | 
